In PubChem BioAssay AID1963829 (Molecular Pharmacology Branch, DTP, NCI, 2024):

The molecules below were run on 935938-334-R-J1-PDC complex spheroid viability (assay: Anticancer human tumor 935938-334-R-J1-PDC patient-derived small intestine adenocarcinoma cell line growth inhibition [POLQ]). Details: second compound 3.16 µM; first compound 3.16 µM; active compounds read low.
In short: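 Patient-derived tumour cells were co-cultured with HUVEC and mesenchymal stem cells as multicellular spheroids at 37 °C. They were treated with POLQ inhibitors (novobiocin, ART-558, RP6685) alone or combined with other agents. Top concentrations were at or near clinical Cmax (otherwise 10 microM; SN-38 at 1 microM), decreasing in half-log steps.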
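Note: spheroids exposed to drugs for seven days before viability read; 100% = DMSO vehicle control wells.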

With `Nc1ccn(C2OC(CO)C(O)C2(F)F)c(=O)n1` (stereo unspecified) + Cc1cccc(N(C)C(=O)C2C(O)CCN2c2nc(C)cc(C(F)(F)F)c2C#N)c1 as the molecule, how does the viability, T/C read?
The viability, T/C was 23.2%.

With `COc1cc2cc(C(=O)CCC(=O)O)sc2cc1OC` + Cc1cccc(N(C)C(=O)C2C(O)CCN2c2nc(C)cc(C(F)(F)F)c2C#N)c1 as the molecule, how does the viability, T/C read?
Its viability, T/C is 98.2%.

For `O=C(c1cc(Cc2n[nH]c(=O)c3ccccc23)ccc1F)N1CCN(C(=O)C2CC2)CC1` + COC1C(OC(N)=O)C(O)C(Oc2ccc3c(O)c(NC(=O)c4ccc(O)c(CC=C(C)C)c4)c(=O)oc3c2C)OC1(C)C, which viability, T/C is on record?
The viability, T/C was 64.6%.

Which viability, T/C does the source give for `O=C(Nc1ccc(O)c(NS(=O)(=O)c2ccc(F)cc2)c1)c1ccc(-c2ccccc2)cc1` + Cc1cccc(N(C)C(=O)C2C(O)CCN2c2nc(C)cc(C(F)(F)F)c2C#N)c1 here?
Its viability, T/C is 98.6%.

With `COc1cc(C2c3cc4c(cc3C(OC3OC5COC(C)OC5C(O)C3O)C3COC(=O)C23)OCO4)cc(OC)c1O` (stereo unspecified) + Cc1cccc(N(C)C(=O)C2C(O)CCN2c2nc(C)cc(C(F)(F)F)c2C#N)c1 as the molecule, how does the viability, T/C read?
The viability, T/C was 28.7%.

For `CC1COCCN1c1cc(C2(S(C)(=N)=O)CC2)nc(-c2ccnc3[nH]ccc23)n1` (stereo unspecified) + COC1C(OC(N)=O)C(O)C(Oc2ccc3c(O)c(NC(=O)c4ccc(O)c(CC=C(C)C)c4)c(=O)oc3c2C)OC1(C)C, which viability, T/C is on record?
Its viability, T/C is 45.1%.

For `COc1cccc2c1C(=O)c1c(O)c3c(c(O)c1C2=O)CC(O)(C(=O)CO)CC3OC1CC(N)C(O)C(C)O1` (stereo unspecified) + Cc1cccc(N(C)C(=O)C2C(O)CCN2c2nc(C)cc(C(F)(F)F)c2C#N)c1, which viability, T/C is on record?
Its viability, T/C is 2.97%.

Same assay, conditions: second compound 3.16 µM; first compound 10 µM; active compounds read low

How did the viability, T/C turn out when `COc1ccc([C@@H](O)c2cc(-c3ncnc4cc(N5CCOCC5)ccc34)c(F)cc2Cl)nn1` + COC1C(OC(N)=O)C(O)C(Oc2ccc3c(O)c(NC(=O)c4ccc(O)c(CC=C(C)C)c4)c(=O)oc3c2C)OC1(C)C was run?
Its viability, T/C is 38.1%.

How did the viability, T/C turn out when `Nc1ccn(C2OC(CO)C(O)C2(F)F)c(=O)n1` (stereo unspecified) + Cc1cccc(N(C)C(=O)C2C(O)CCN2c2nc(C)cc(C(F)(F)F)c2C#N)c1 was run?
Its viability, T/C is 20.3%.

With `COc1cc2cc(C(=O)CCC(=O)O)sc2cc1OC` + Cc1cccc(N(C)C(=O)C2C(O)CCN2c2nc(C)cc(C(F)(F)F)c2C#N)c1 as the molecule, how does the viability, T/C read?
Its viability, T/C is 95.1%.

`O=C(c1cc(Cc2n[nH]c(=O)c3ccccc23)ccc1F)N1CCN(C(=O)C2CC2)CC1` + COC1C(OC(N)=O)C(O)C(Oc2ccc3c(O)c(NC(=O)c4ccc(O)c(CC=C(C)C)c4)c(=O)oc3c2C)OC1(C)C was tested. Which viability, T/C did it give?
The viability, T/C was 84%.

For `O=C(Nc1ccc(O)c(NS(=O)(=O)c2ccc(F)cc2)c1)c1ccc(-c2ccccc2)cc1` + Cc1cccc(N(C)C(=O)C2C(O)CCN2c2nc(C)cc(C(F)(F)F)c2C#N)c1, which viability, T/C is on record?
Its viability, T/C is 61%.

How did the viability, T/C turn out when `COc1cc(C2c3cc4c(cc3C(OC3OC5COC(C)OC5C(O)C3O)C3COC(=O)C23)OCO4)cc(OC)c1O` (stereo unspecified) + Cc1cccc(N(C)C(=O)C2C(O)CCN2c2nc(C)cc(C(F)(F)F)c2C#N)c1 was run?
Its viability, T/C is 34.7%.

For `CC1COCCN1c1cc(C2(S(C)(=N)=O)CC2)nc(-c2ccnc3[nH]ccc23)n1` (stereo unspecified) + COC1C(OC(N)=O)C(O)C(Oc2ccc3c(O)c(NC(=O)c4ccc(O)c(CC=C(C)C)c4)c(=O)oc3c2C)OC1(C)C, which viability, T/C is on record?
The viability, T/C was 16.3%.

Which viability, T/C does the source give for `COc1cccc2c1C(=O)c1c(O)c3c(c(O)c1C2=O)CC(O)(C(=O)CO)CC3OC1CC(N)C(O)C(C)O1` (stereo unspecified) + Cc1cccc(N(C)C(=O)C2C(O)CCN2c2nc(C)cc(C(F)(F)F)c2C#N)c1 here?
The viability, T/C was 4.99%.

Same assay, conditions: second compound 10 µM; first compound 0.0316 µM; active compounds read low

`COc1ccc([C@@H](O)c2cc(-c3ncnc4cc(N5CCOCC5)ccc34)c(F)cc2Cl)nn1` + COC1C(OC(N)=O)C(O)C(Oc2ccc3c(O)c(NC(=O)c4ccc(O)c(CC=C(C)C)c4)c(=O)oc3c2C)OC1(C)C was tested. Which viability, T/C did it give?
The viability, T/C was 95.8%.

Which viability, T/C does the source give for `Nc1ccn(C2OC(CO)C(O)C2(F)F)c(=O)n1` (stereo unspecified) + Cc1cccc(N(C)C(=O)C2C(O)CCN2c2nc(C)cc(C(F)(F)F)c2C#N)c1 here?
The viability, T/C was 39.2%.

Which viability, T/C does the source give for `COc1cc2cc(C(=O)CCC(=O)O)sc2cc1OC` + Cc1cccc(N(C)C(=O)C2C(O)CCN2c2nc(C)cc(C(F)(F)F)c2C#N)c1 here?
The viability, T/C was 135%.

How did the viability, T/C turn out when `O=C(c1cc(Cc2n[nH]c(=O)c3ccccc23)ccc1F)N1CCN(C(=O)C2CC2)CC1` + COC1C(OC(N)=O)C(O)C(Oc2ccc3c(O)c(NC(=O)c4ccc(O)c(CC=C(C)C)c4)c(=O)oc3c2C)OC1(C)C was run?
The viability, T/C was 94.9%.

How did the viability, T/C turn out when `O=C(Nc1ccc(O)c(NS(=O)(=O)c2ccc(F)cc2)c1)c1ccc(-c2ccccc2)cc1` + Cc1cccc(N(C)C(=O)C2C(O)CCN2c2nc(C)cc(C(F)(F)F)c2C#N)c1 was run?
Its viability, T/C is 92.4%.

Which viability, T/C does the source give for `COc1cc(C2c3cc4c(cc3C(OC3OC5COC(C)OC5C(O)C3O)C3COC(=O)C23)OCO4)cc(OC)c1O` (stereo unspecified) + Cc1cccc(N(C)C(=O)C2C(O)CCN2c2nc(C)cc(C(F)(F)F)c2C#N)c1 here?
Its viability, T/C is 110%.
